| SMILES | melting point [°C] |
| --- | --- |
| COc1ccc2c(C3=CCNCC3)c[nH]c2c1 | 193 to 194 |
| Cc1ccc(C2CCN(C(=O)Nc3ccc4nc(CN5C(C)(C)CCCC5(C)C)ccc4c3)CC2)cc1 | 200 to 202 |
| CC(C)(C(=O)OCC(=O)c1ccccc1)n1c(=O)[nH]c2cc3ccccc3cc2c1=O | 184 to 185 |
| CCCCc1n[nH]c(C(=O)OC)c1Cc1ccc(-c2ccccc2-c2nc(=O)s[nH]2)cc1 | 171 to 172 |
| CC(C)(C)OC(=O)NCCNC(=O)C1CCN(C(=O)OC(C)(C)C)CC1 | 172 to 174 |
| COc1ccc(S(=O)(=O)Nc2ccccc2Cl)cc1OC1CCCC1 | 113 to 115 |
| COC(=O)C(C)(C)Cc1ccc(OCc2oc(-c3ccc(C(F)(F)F)cc3)cc2C(=O)O)cc1 | 153 to 155 |
| CCC(=O)N[C@@H](C)C(=O)N[C@@H](C)C(=O)NC1CCCCC1 | 299 to 300 |
| Cc1c(C)c2c(c(C)c1NC(=O)NCC(C)(C)CO)C(c1ccc(C(C)C)cc1)CO2 (stereo unspecified) | 117 to 118 |
| CN(CCO)Cc1ccc(-c2ccc3c(Nc4ccc(Sc5nccn5C)c(Cl)c4)c(C#N)cnc3c2)nc1 | 197 to 199 |
| CCCCCCCCC(=O)OCc1c(Cl)ccc2cc(Cl)cnc12 | 92 |
| O=[N+]([O-])c1ccc(O)cc1OCCO | 167 |
| Cc1ccc(-c2n[nH]cc2C=O)s1 | 97 to 99 |
| COc1ccccc1N1CCN(C(=O)Nc2cc(C(C)O)c(C)nc2OC)CC1 (stereo unspecified) | 88 to 90 |
| CCCCCCCNC(=O)Nc1ccccc1C(=O)NCCCC1CCN(C(c2ccccc2)c2ccccc2)C1 (stereo unspecified) | 109 to 111 |
| c1ccc(-c2cnn3cc(-c4ccc(CCCN5CCOCC5)cc4)cnc23)cc1 | 147 to 149 |
| Cn1c(CC#N)ccc1C(=O)Cl | 78 to 80 |
| CC(=NC(=Nc1ccccc1)N1CCOCC1)NC(C)C | 142 to 145 |
| O=C1N[C@H](CO)C[C@H]1C1CCCCC1 | 96 to 97 |
| Cc1c2c(cnc3ccccc32)nn1-c1ccccc1 | 128 to 130 |
| CCOc1nc2cc(OC)cc(C)c2c(=O)o1 | 138 to 140 |
| CCC1Cc2cc(OCC(=O)O)c(Cl)cc2C1=O (stereo unspecified) | 132 to 138 |
| N=C(N)c1ccc2c(c1)N(CC(=O)c1ccccc1-c1ccccc1)C(=O)CN2 | 148 to 150 |
| COC1CCCn2c1nc(C)c(CCN1CCC(c3noc4cc(F)ccc34)CC1)c2=O (stereo unspecified) | 131 |
| COc1cc2c(c3c1OC(C)(C)C3)C(c1cccc(O)c1)=NC(C)(C)C2 | 208 to 209 |
| O=c1[nH]c2ccc(CCN3CCN(c4cccc5cccnc45)CC3)cc2o1 | 200 |

| SMILES | melting point [°C] |
| --- | --- |
| CCOC(=O)C=Cc1ccc(OCCN(C)c2ccccn2)cc1 | 80 to 81 |
| CN1C(=O)C(C(=O)Nc2ccc(Cl)c(Cl)c2)Sc2ccccc21 (stereo unspecified) | 191 to 193 |
| O=[N+]([O-])c1sc(Nc2c(Cl)cccc2Cl)nc1Cl | 141 |
| Cc1c(OCc2ccccn2)nn2c(-c3ccccc3)nnc2c1C | 185 |
| COc1ccc(OC)c(S(=O)(=O)n2c(COC(C)C(=O)O)cc3cc(Cl)ccc32)c1 (stereo unspecified) | 196 to 198 |
| Nc1nc(Cc2cccs2)no1 | 132 to 133 |
| C[C@@H]([C@@H](O)c1ccc(O)cc1)N1CCC(O)(c2ccccc2)CC1 (relative stereo) | 202 to 204 |
| CC(C)Oc1cc(CCC(=O)NS(=O)(=O)Cc2ccccc2)n(Cc2ccc(Cl)cc2Cl)n1 | 183 to 184 |
| O=C(O)c1ccc(-c2nc(-c3ccc(OC(F)(F)F)cc3)cs2)cc1 | 245 to 246 |
| O=C(NC(Cc1ccc(OCc2ccccc2)cc1)C(=O)O)c1cn2c(-c3ccc(Cl)cc3)cccc2n1 (stereo unspecified) | 218 |
| O=C(O)COCc1ccc(C=CC(=O)N2CCc3c([nH]c4ccccc34)C2c2ccc3c(c2)OCO3)cc1 (stereo unspecified) | 162 to 163 |
| Cn1c(CC(=O)O)ccc1C(=O)c1ccccc1Cl | 140 to 141 |
| CNc1nc(Br)cc(S(=O)(=O)c2ccccc2)n1 | 142 to 143 |
| CCCc1c(C(=O)NC2CC2)nnn1-c1ccc(C(=O)NCC)cc1O | 203 |
| O=c1[nH]n(-c2ccnc(N[C@H]3CC[C@H](O)CC3)n2)c2ccccc12 | 264 |
| CCC1SC(=O)NN=C1c1ccc(OC(F)F)c(OC)c1 (stereo unspecified) | 97 |
| O=Cc1ccccc1OC(=O)C(=O)Oc1ccccc1C=O | 134 to 135 |
| OCCCc1ccc(-c2ccc(CCCO)c(C(F)(F)F)c2)cc1C(F)(F)F | 87.5 to 90 |
| CCS(=O)(=O)Cc1c(Cl)c(Cl)cc2nc(OC)c(OC)nc12 | 150 to 152 |
| COc1ccc(NS(=O)(=O)c2cc(C)c3cc(C(C)C)ccc(C)c2-3)c(OC)c1 | 114 to 116 |
| CCCCCCCCCN1C(=O)c2ccc3c4cccc5cccc(c6ccc(c2c36)C1=O)c54 | 201 |
| CCCNC(=S)NC1=Nc2ccc(OC(F)(F)F)cc2CS1 | 148 to 151 |
| CCN(CC)C(=O)COc1cc(-c2ccccc2)nc2ccccc12 | 97 |
| CCOC(=O)c1cnn(Cc2ccc(OCc3nc(-c4ccccc4)oc3C)cc2)c1 | 108 to 109 |
| CN(C)c1c(C=O)n(C)c(=O)n1-c1cccc(C(F)(F)F)c1 | 87 to 90 |

Reference: a melting point compilation (Tetko et al.; mined from patent text by program, amines drawn as free bases though some values may be those of a salt)
